Results as given in US20260297081A1, “COMPOUNDS AND METHODS OF TREATING CANCERS” (Cullgen Inc., priority 2023, published 2026).

Test system: MCF7 cells
Experiment: Anti-proliferation (viability) of MCF7 cells (Table 7, FIG. 2B)
Type: cell-based
Settings: Homo sapiens, MCF7, MCF7 cells, 3-6 days, 10-point serial dilution; read-out: GI IC50 in MCF-7

IC50	Compound
< 50 nM	[2H]C([2H])([2H])Nc1ccc(C(=O)Nc2cc(C)n(C)n2)c(NC2CC3(C2)CN(C(=O)CC(N2CCN(c4ccc(Nc5ncc6c(C)c(C(C)=O)c(=O)n(C7CCCC7)c6n5)nc4)CC2)C(F)(F)F)C3)n1 (stereo not drawn) [CPD-434, 2-((2-(3-(4-(6-((6-acetyl-8-cyclopentyl-5-methyl-7-oxo-7,8-dihydropyrido[2,3-d]pyrimidin-2-yl)amino)pyridin-3-yl)piperazin-1-yl)-4,4,4-trifluorobutanoyl)-2-azaspiro[3.3]heptan-6-yl)amino)-N-(1,5-dimethyl-1H-pyrazol-3-yl)-6-((methyl-d3)amino)nicotinamide]
> 100 nM	CC(=O)c1c(C)c2cnc(Nc3ccc(N4CCC5(CC4)CC5C(=O)N4CC5(CC(Nc6nc(NC(C)C)ccc6C(=O)Nc6cn(C)c(C7CC7)n6)C5)C4)cn3)nc2n(C2CCCC2)c1=O (stereo not drawn) [CPD-412, 2-((2-(6-(6-((6-acetyl-8-cyclopentyl-5-methyl-7-oxo-7,8-dihydropyrido[2,3-d]pyrimidin-2-yl)amino)pyridin-3-yl)-6-azaspiro[2.5]octane-1-carbonyl)-2-azaspiro[3.3]heptan-6-yl)amino)-N-(2-cyclopropyl-1-methyl-1H-imidazol-4-yl)-6-(isopropylamino)nicotinamide]
50 to 100 nM	CNc1ccc(C(=O)Nc2ccc(N(C)C)nn2)c(NC2CCC(C(=O)N3CCC4(CCN(c5ccc(Nc6ncc7c(C)c(C(C)=O)c(=O)n(C8CCCC8)c7n6)nc5)CC4)C3)CC2)n1 (stereo not drawn) [CPD-385, 2-((4-(8-(6-((6-acetyl-8-cyclopentyl-5-methyl-7-oxo-7,8-dihydropyrido[2,3-d]pyrimidin-2-yl)amino)pyridin-3-yl)-2,8-diazaspiro[4.5]decane-2-carbonyl)cyclohexyl)amino)-N-(6-(dimethylamino)pyridazin-3-yl)-6-(methylamino)nicotinamide]
> 100 nM	CC(=O)c1c(C)c2cnc(Nc3ccc(CC4CCN(CC(=O)N5CCC(Nc6nc(NC(C)C)ccc6C(=O)Nc6ccc(N(C)C)nn6)CC5)CC4)cn3)nc2n(C2CCCC2)c1=O [CPD-386, 2-((1-(2-(4-((6-((6-acetyl-8-cyclopentyl-5-methyl-7-oxo-7,8-dihydropyrido[2,3-d]pyrimidin-2-yl)amino)pyridin-3-yl)methyl)piperidin-1-yl)acetyl)piperidin-4-yl)amino)-N-(6-(dimethylamino)pyridazin-3-yl)-6-(isopropylamino)nicotinamide]
> 100 nM	CC(=O)c1c(C)c2cnc(Nc3ccc(N4CCC(N5CCC(C(=O)N6CC(Nc7nc(NC(C)C)ccc7C(=O)Nc7ccc(N(C)C)nn7)C6)C5)CC4)cn3)nc2n(C2CCCC2)c1=O (stereo not drawn) [CPD-394, 2-((1-(1-(1-(6-((6-acetyl-8-cyclopentyl-5-methyl-7-oxo-7,8-dihydropyrido[2,3-d]pyrimidin-2-yl)amino)pyridin-3-yl)piperidin-4-yl)pyrrolidine-3-carbonyl)azetidin-3-yl)amino)-N-(6-(dimethylamino)pyridazin-3-yl)-6-(isopropylamino)nicotinamide]
50 to 100 nM	[2H]C([2H])([2H])Nc1ccc(C(=O)Nc2cn(C)c(C3CC3)n2)c(NC2CC3(C2)CN(C(=O)CC(C)N2CCN(c4ccc(Nc5ncc6c(C)c(C(C)=O)c(=O)n(C7CCCC7)c6n5)nc4)CC2)C3)n1 (stereo not drawn) [CPD-339, 2-((2-(3-(4-(6-((6-acetyl-8-cyclopentyl-5-methyl-7-oxo-7,8-dihydropyrido[2,3-d]pyrimidin-2-yl)amino)pyridin-3-yl)piperazin-1-yl)butanoyl)-2-azaspiro[3.3]heptan-6-yl)amino)-N-(2-cyclopropyl-1-methyl-1H-imidazol-4-yl)-6-((methyl-d3)amino)nicotinamide]
< 50 nM	CC(=O)c1c(C)c2cnc(Nc3ccc(N4CCN(C(CC(=O)N5CC6(CC(Nc7nc(NC(C)C)ccc7C(=O)Nc7cn(C)c(C8CC8)n7)C6)C5)C(F)(F)F)CC4)cn3)nc2n(C2CCCC2)c1=O (stereo not drawn) [CPD-436, 2-((2-(3-(4-(6-((6-acetyl-8-cyclopentyl-5-methyl-7-oxo-7,8-dihydropyrido[2,3-d]pyrimidin-2-yl)amino)pyridin-3-yl)piperazin-1-yl)-4,4,4-trifluorobutanoyl)-2-azaspiro[3.3]heptan-6-yl)amino)-N-(2-cyclopropyl-1-methyl-1H-imidazol-4-yl)-6-(isopropylamino)nicotinamide]
< 50 nM	[2H]C([2H])([2H])Nc1ccc(C(=O)Nc2cn(C)c(C3CC3)n2)c(NC2CC3(C2)CN(C(=O)CN2CCC4(CCN(c5ccc(Nc6ncc7c(C)c(C(C)=O)c(=O)n(C8CCCC8)c7n6)nc5)C4)C2)C3)n1 (stereo not drawn) [CPD-443, 2-((2-(2-(7-(6-((6-acetyl-8-cyclopentyl-5-methyl-7-oxo-7,8-dihydropyrido[2,3-d]pyrimidin-2-yl)amino)pyridin-3-yl)-2,7-diazaspiro[4.4]nonan-2-yl)acetyl)-2-azaspiro[3.3]heptan-6-yl)amino)-N-(2-cyclopropyl-1-methyl-1H-imidazol-4-yl)-6-((methyl-d3)amino)nicotinamide]
> 100 nM	CNc1ccc(C(=O)Nc2cc(C)n(C3CCC3)n2)c(NC2CC3(CC(NC(=O)CN4CCN(c5ccc(Nc6ncc7c(C)c(C(C)=O)c(=O)n(C8CCCC8)c7n6)nc5)CC4)C3)C2)n1 (stereo not drawn) [CPD-297, 2-((6-(2-(4-(6-((6-acetyl-8-cyclopentyl-5-methyl-7-oxo-7,8-dihydropyrido[2,3-d]pyrimidin-2-yl)amino)pyridin-3-yl)piperazin-1-yl)acetamido)spiro[3.3]heptan-2-yl)amino)-N-(1-cyclobutyl-5-methyl-1H-pyrazol-3-yl)-6-(methylamino)nicotinamide]
> 100 nM	[2H]C([2H])([2H])Nc1ccc(C(=O)Nc2ccc(N(C)C)nn2)c(NC2CN(C(=O)CN3CCC4(CCN(c5ccc(Nc6ncc7c(C)c(C(C)=O)c(=O)n(C8CCCC8)c7n6)nc5)C4)C3)C2)n1 (stereo not drawn) [CPD-442, 2-((1-(2-(7-(6-((6-acetyl-8-cyclopentyl-5-methyl-7-oxo-7,8-dihydropyrido[2,3-d]pyrimidin-2-yl)amino)pyridin-3-yl)-2,7-diazaspiro[4.4]nonan-2-yl)acetyl)azetidin-3-yl)amino)-N-(6-(dimethylamino)pyridazin-3-yl)-6-((methyl-d3)amino)nicotinamide]
< 50 nM	[2H]C([2H])([2H])Nc1ccc(C(=O)Nc2ccc(N(C)C)nn2)c(NC2CC3(C2)CN(C(=O)CCN2CCN(c4ccc(Nc5ncc6c(C)c(C(C)=O)c(=O)n(C7CCCC7)c6n5)nc4)CC2)C3)n1 [CPD-432, 2-((2-(3-(4-(6-((6-acetyl-8-cyclopentyl-5-methyl-7-oxo-7,8-dihydropyrido[2,3-d]pyrimidin-2-yl)amino)pyridin-3-yl)piperazin-1-yl)propanoyl)-2-azaspiro[3.3]heptan-6-yl)amino)-N-(6-(dimethylamino)pyridazin-3-yl)-6-((methyl-d3)amino)nicotinamide]
< 50 nM	CNc1ccc(C(=O)Nc2ccc(N(C)C)nn2)c(NC2CC3(C2)CN(C(=O)CN2CCN(Cc4ccc(Nc5ncc6c(C)c(C(C)=O)c(=O)n(C7CCCC7)c6n5)nc4)CC2)C3)n1 [CPD-268, 2-((2-(2-(4-((6-((6-acetyl-8-cyclopentyl-5-methyl-7-oxo-7,8-dihydropyrido[2,3-d]pyrimidin-2-yl)amino)pyridin-3-yl)methyl)piperazin-1-yl)acetyl)-2-azaspiro[3.3]heptan-6-yl)amino)-N-(6-(dimethylamino)pyridazin-3-yl)-6-(methylamino)nicotinamide]
